Data: patent publication US5246966A, “Substituted alkenoic acid and its derivatives” (Bayer Aktiengesellschaft, priority 1991, dated 1993)

Biological target: T1, LTD4 receptor ([3H-LTD4] binding to guinea-pig lung membranes) (Cavia porcellus, UniProt Q2NNR5)
T1 construct: guinea-pig lung membranes; from tissue; host or cells: guinea-pig lung membranes
T1 sequence (Q2NNR5 1-340): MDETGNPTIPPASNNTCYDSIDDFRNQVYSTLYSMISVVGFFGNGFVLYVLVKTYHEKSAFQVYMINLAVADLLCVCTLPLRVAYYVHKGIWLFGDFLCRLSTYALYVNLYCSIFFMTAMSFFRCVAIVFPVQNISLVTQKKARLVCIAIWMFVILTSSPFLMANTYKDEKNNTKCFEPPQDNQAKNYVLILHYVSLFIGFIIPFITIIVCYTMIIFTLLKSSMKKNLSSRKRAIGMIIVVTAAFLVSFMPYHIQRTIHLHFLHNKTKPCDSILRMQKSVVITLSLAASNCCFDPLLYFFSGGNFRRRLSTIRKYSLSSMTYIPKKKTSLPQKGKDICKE
Assay: [3H]-LTD4 binding assay
Settings: displacement of 0.8 nM 3H-LTD4 from guinea-pig lung membranes, 15 minutes at 20° C., pH 7.4; Cheng and Prusoff correction of IC50; read-out: pKi [3H-LTD4] (converted)
Protocol: To evaluate the pharmacological properties the receptor affinity of the compounds were determined by measuring its ability to displace [^3 H-LTD4 ] binding to guinea-pig lung membranes.
Test method: [^3 H]-LTD4 BINDING ASSAY
Increasing concentrations (between 10^-8 and 10^-5 M) of compounds of general formula I were incubated with 0.8 nM^3 H-LTD4 and guinea-pig lung membranes (100-150 μg protein) for 15 minutes at 20° C. in an assay buffer of 10 mM L-cysteine and 1% polypep in 50 mM Tris HCl at pH 7.4. Incubations (total volume 0.25 ml) were terminated by addition of ice-cold Tris HCl (pH 7.4) and rapidly filtered through Whatman GF/C filters which were washed twice with ice-cold buffer. All points were determined in triplicate.
The counts (dpm) bound to each filter were determined by liquid scintillation spectrometry. The amount bound in the presence of each concentration of test compound was compared to the amount of binding in the absence of test compound […] and to the amount bound in the presence of 2 μm LTD4. […]
Where 0.8 nM is the dissociation constant for ^3 H-LTD4 under these conditions and [^3 H-LTD4 ] is the precise concentration (in nM) employed in the assay (also determined by liquid scintillation counting).

`O=C(O)CC[C@@H](/C=C\Cc1ccc(OCCCCOc2ccccc2)cc1)Sc1ccc(C(=O)O)cc1` [Example No. 4, Z-[4S]-4-(4-Carboxyphenylthio)-7-[4-(4-phenoxybutoxy)-phenyl]-5-heptenoic acid] was tested, and the Ki was 31.6 nM.
